In one data set the target is T1, Aβ42 (Homo sapiens, UniProt P05067).
T1 construct: Aβ42 of 42 amino acids
In words: Aβ fibril formation, Thioflavin T (ThT) fluorescence assay. The data set is classed as biochemical. The procedure:
Fibril formation by concentrated Aβ is Alzheimer's representative symptom and has been focused on recently. The concentrated Aβ was measured by Thioflavin T (ThT) fluorescence assay, as chemical process was artificially generated.
For formation of Aβ fibril, Aβ42 was melt in 1,1,1,3,3,3-hexafluoro-2-propanol (HFIP) up to 1 mg/ml, then injected to 96-well plate, the concentration of Aβ42 was 10 uM each well, HFIP was evaporated shortly before the beginning of the experiment. Various concentrations of Justicidin A and a certain amount of 5 uM ThT were added, and Fluorescence intensity was measured at various times by Tecan infinite M1000 microplate reader (Tecan, Switzerland).

In the next data set the test system is O-glycosylated maAPP. In words: APP O-glycosylation, O-glycosylation antibody then APP Western blotting. The format is cell-based, human. The following applies: 1, 5, 10 uM, 4 hrs. The protocol:
According to the same method as above, HeLa cell line was treated with 1, 5, 10 uM of Justicidin A for 4 hrs. Then, the 5 ul of O-glycosylation antibody (#MMS-248R, Covance) was added to 500 ug of the separated plasma membrane protein, and performed by electrophoresis and the western blotting using the APP antibody (1:2000 diluted, A8717, Sigma).

The test system of data set [1] is male ICR mouse. In words: Morris water maze test, scopolamine-impaired memory model. The format is in vivo. The following applies: oral, 1, 5, 10 and 20 mg/kg, compared to scopolamine group. The procedure:
The male ICR mouse was 5 to 6-week age (25-30 g of body weight) (Orientbio Inc., Seougnam, Republic of Korea), and was raised with solid feed and tap water for 1 week before being used for test. At a first day, the normal control group and the group administered by the scopolamine were fed with 5% (v/v) DMSO-saline, the test group was orally administered by 1, 5, 10 and 20 mg/kg/10 ml of Justicidin A (C1) in 5% DMSO-Saline, and the comparative group was administered with 2 mg/kg/10 ml of Donepezil (brand name: Aricept, Eisai) being commercially available as a drug for treating an dementia of the Alzheimer's type. […]
The same test was performed repetitively twice per a day for 4 days as an Acquisition Test, and the entire test was automatically recorded and analyzed with Noldus Ethovision 7.0 program (Noldus Information Technology, USA).
In addition, after finishing the Acquisition Test performed for four (4) days, the Probe test was carried out at fifth day. […] The whole test procedure was automatically recorded and analyzed with Noldus Ethovision 7.0 program (Noldus Information Technology, USA).

Data set [2] concerns male ICR mouse. In words: Novel object recognition test, scopolamine-impaired memory model. The format is in vivo. To be noted: oral, 10 mg/kg and 20 mg/kg; compared with 2 mg/kg Donepezil. The procedure: The male ICR mouse was 5 to 6-week age (25˜30 g of body weight) (Orientbio Inc., Seougnam, Republic of Korea), and was raised with solid feed and tap water for 1 week before being used for test. For 3 days before the test, each mouse to get adjusted to Arena (grey mat acryl material, 50 cm×50 cm×60 cm) went freely into the Arena for 10 minutes per a day.
At a first day, the normal control group and the group administered by the scopolamine were fed with 5% (v/v) DMSO-saline, the test group was orally administered by 1, 5, 10 and 20 mg/kg/10 ml of Justicidin A (C1) in 5% DMSO-Saline, and the comparative group was administered with 2 mg/kg/10 ml of Donepezil (brand name: Aricept, Eisai) being commercially available as a drug for treating an dementia of the Alzheimer's type. After 30 minutes, the groups were intraperitoneally injected by scopolamine (Sigma-Aldrich Chemical Co., St Louis, USA) at 1 mg/kg/10 ml. […]
At the second day, the mice were dropped into the Arena without treatment of additional drug and scopolamine. […] Entire test was automatically recorded and analyzed with Noldus Ethovision 7.0 program (Noldus Information Technology, USA). The time when the mice sought the object in 3 minutes after dropping two objects at second day of test were measured and calculated as Memory Index (%, ratio of time for Novel object recognition to entire time for recognition). […]

For a further data set, the system named is PC12 cell. Kind of data set: Cell viability assay, Cell counting kit-8. The data set is classed as cell-based. To be noted: 125 nM to 1000 nM, 24 hrs. The procedure: Firstly, cell viability assay was performed for identifying whether Justicidin A had toxicity to normal brain cell line. Cell viability assay performed using Cell counting kit-8 (CCK-8, WST-8, Kamimashikigun, Kumamoto, Japan). More particularly, 1.5×10^4 cells of PC12 (Cell No. RCB0009, RIKEN BRC Cell Bank, Tsukuba, Ibaraki, Japan) were seeded to each well of 96-well plate, and incubated for 24 hrs. Then various concentrations of Justicidin A were treated for 24 hrs, and measured by Cell counting kit-8.
(Formazan colour is commonly taken as a measure of viable cells.)

T1 sequence (P05067 672-713 limits assumed): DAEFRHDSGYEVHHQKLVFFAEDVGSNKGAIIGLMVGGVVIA

Take `COc1cc2c(OC)c3c(c(-c4ccc5c(c4)OCO5)c2cc1OC)C(=O)OC3` [Justicidin A]: the inhibition (in general, the change of the read-out against control, counted positive when it falls) at 5 µM at Aβ42 (5 uM, read-out: inhibition of formation of Aβ fibril compared to the control group) came out at 52%. Besides, on Aβ42 (various concentrations, up to 36 hrs), the “inhibition of formation of Aβ fibril” value is recorded as “inhibited the formation of Aβ fibril in a concentration-dependent manner”. Moreover, the “O-glycosylated maAPP” value in the data set on O-glycosylated maAPP is recorded as “the O-glycosylated maAPP was increased”. For the same molecule, the “memory and learning ability (acquisition and probe test)” value with male ICR mouse [1] is “equivalent or higher memory and learning ability”. Moreover, in the data set with male ICR mouse [2], the “memory and learning ability (Memory Index)” value was “showed high memory and learning ability”. The “toxicity to PC12 cell” value in the data set with PC12 cell is given as “has no toxicity to PC12 cell”.
